Assay results from patent publication US20230000813A1, “COMPOUND FOR THE TREATMENT OF BOVINE OR SWINE RESPIRATORY DISEASE” (Intervet Inc., priority 2016, published 2023).
≈ marks a conversion by molar mass, not a printed value. Like-named read-outs stand apart in the source and are kept apart here.

How the values were obtained:
Assay type in all cases: cell-based
[1] = test system: Mannheimia haemolytica MH 10720 (154, BRD field isolate); test: MIC, broth-microdilution (CLSI VET01-A4)
In short: (§1)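 Visual no-turbidity endpoint over twofold compound dilutions in microdilution trays, interpreted according to CLSI VET01-S3.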

[2] = test system: Mannheimia haemolytica MH 12587 (1071, BRD field isolate, macrolide-resistance: erm+, E+); test: MIC, broth-microdilution (CLSI VET01-A4); settings: for MIC MH 12587: Mannheimia haemolytica MH 12587, macrolide-resistant
In short: as §1

[3] = test system: Mannheimia haemolytica MH 6357 (M7/2, reference strain, cattle infection strain); test: MIC, broth-microdilution (CLSI VET01-A4)
In short: as §1

[4] = test system: Mannheimia haemolytica MH 6374 (ATCC 33396, reference strain); test: MIC, broth-microdilution (CLSI VET01-A4)
In short: as §1

[5] = test system: Pasteurella multocida PM 10775 (080130003051, BRD field isolate); test: MIC, broth-microdilution (CLSI VET01-A4); settings: for MIC: strain PM 10775
In short: as §1

[6] = test system: Pasteurella multocida PM 12080 (IV102277-0093, BRD field isolate); test: MIC, broth-microdilution (CLSI VET01-A4); settings: for MIC PM 12080: Pasteurella multocida PM 12080; for MIC: strain PM 12080
In short: as §1

[7] = test system: Pasteurella multocida PM 6267 (P 2225 (L386), reference strain, mouse infection strain); test: MIC, broth-microdilution (CLSI VET01-A4); settings: for MIC PM 6267: Pasteurella multocida PM 6267; for MIC: strain PM 6267
In short: as §1

[8] = test system: Pasteurella multocida PM 6391 (ATCC 43137, reference strain); test: MIC, broth-microdilution (CLSI VET01-A4); settings: for MIC: strain PM 6391
In short: as §1

[9] = test system: Mannheimia haemolytica MH 13065 (XB0446-6003.9, BRD field isolate); test: MIC, broth-microdilution (CLSI VET01-A4)
In short: (§2)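 MIC read by eye as lowest compound concentration without visible growth (no turbidity), interpreted per CLSI VET01-S3. Doubling-dilution broth-microdilution trays, run according to CLSI VET01-A4.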

[10] = test system: Mannheimia haemolytica MH 13093 (XB0472-6014.1, BRD field isolate); test: MIC, broth-microdilution (CLSI VET01-A4)
In short: as §2

[11] = test system: Acinetobacter baumanii AB 15919 (IV369-2012, dermatitis field isolate); test: MIC, broth-microdilution (CLSI VET01-A4); settings: strain AB 15919
Description: (§3) The Minimum inhibitory concentrations (MIC) of compounds according to the invention were determined by the broth-microdilution method according to CLSI document VET01-A4.
(§4) Microdilution trays containing a doubling dilution series of the test compound were used for the tests.
(§5) The MIC results were interpreted according to the CLSI documents VET01-S3. The lowest concentration of compound at which no visible growth (i.e. no turbidity) detected by the unaided eye was recorded as the MIC.

[12] = test system: Acinetobacter baumanii AB 16496 (ATCC 19606, reference strain); test: MIC, broth-microdilution (CLSI VET01-A4); settings: strain AB 16496
Description: as §3, §4, §5

[13] = test system: Mannheimia haemolytica MH 12180 (KLI-02944, BRD field isolate); test: MIC, broth-microdilution (CLSI VET01-A4); settings: strain MH 12180
Description: as §3, §4, §5

[14] = test system: Pasteurella multocida PM 14426 (0006-439, BRD field isolate, macrolide-resistant); test: MIC, broth-microdilution (CLSI VET01-A4); settings: strain PM 14426, macrolide-resistant
Description: as §3, §4, §5

[15] = test system: Staphylococcus aureus SA 5816 (2139, mastitis field isolate); test: MIC, broth-microdilution (CLSI VET01-A4); settings: strain SA 5816
Description: as §3, §4, §5

[16] = test system: Staphylococcus aureus SA 6114 (ATCC 29213, reference strain); test: MIC, broth-microdilution (CLSI VET01-A4); settings: strain SA 6114
Description: as §3, §4, §5

[17] = test system: 20 isolates of Actinobacillus (A.) pleuropneumoniae; test: MIC50/MIC90, broth-microdilution, European respiratory tract isolates
Description: (§6) The in vitro activity of compounds against 20 isolates of Actinobacillus (A.) pleuropneumoniae, 20 of Bordetella (B.) bronchiseptica, 20 of Histophilus (H.) somni, 40 of Mannheimia (M.) haemolytica and 40 of Pasteurella (P.) multocida collected in different European countries were determined. All bacteria were isolated from the respiratory tract of swine and cattle suffering from respiratory disease. All isolates were epidemiologically unrelated as specified by the different suppliers.
(§7) The minimum inhibitory concentrations (MIC) of compounds according to the invention were determined by the broth-microdilution method according to CLSI document VET01-A4.
(§8) Microdilution trays containing a doubling dilution series of the test compounds were used for the tests.
as §5

[18] = test system: 20 isolates of Bordetella (B.) bronchiseptica; test: as above
Description: as §6, §7, §8, §5

[19] = test system: 20 isolates of Histophilus (H.) somni; test: as above
Description: as §6, §7, §8, §5

[20] = test system: 40 isolates of Mannheimia (M.) haemolytica; test: as above
Description: as §6, §7, §8, §5

[21] = test system: 40 isolates of Pasteurella (P.) multocida; test: as above
Description: as §6, §7, §8, §5

[22] = test system: 15 isolates of H. parasuis; test: MIC50/MIC90, agar-dilution method (GC agar base); settings: Haemophilus parasuis
Description: The in vitro activity of 3 representative compounds of this invention against 15 isolates of H. parasuis was determined. All strains were isolated from the respiratory tract of swine in different European countries The MICs for all isolates were determined by using the agar-dilution method according to CLSI document VET01-A4 [1]with the following modification: GC agar base was used instead of Mueller-Hinton agar base for the preparation of the agar-dilution plates. Results were interpreted according to the CLSI document VET01-S3.

[23] = Mannheimia haemolytica MH 6374, read-out: MIC MH 6374

## CC(C)(N)C(NC(=O)c1ccc(C#Cc2ccc(CNCc3ccncc3)cc2)cc1)C(=O)NO (stereo not shown) [C. 320]
[1]; Mannheimia haemolytica MH 10720, read-out: MIC MH 10720
  MIC: 0.4 µM
[1]; strain MH 10720
  MIC: 0.25 µg/mL
[2]
  MIC MH 12587: 1.6 µM (≈ 0.754 µg/mL)
[2]; strain MH 12587, macrolide-resistant
  MIC: 0.5 µg/mL (≈ 1.06 µM)
[3]; Mannheimia haemolytica MH 6357, read-out: MIC MH 6357
  MIC: 0.8 µM
[3]; strain MH 6357
  MIC: 0.5 µg/mL
[4]; [23]
  MIC: 0.8 µM
[4]; strain MH 6374
  MIC: 0.25 µg/mL
[5]; Pasteurella multocida PM 10775
  MIC PM 10775: <=0.1 μM
[5]
  MIC: ≤0.016 µg/mL
[6]
  MIC PM 12080: <=0.1 μM
  MIC: ≤0.016 µg/mL
[7]
  MIC PM 6267: <=0.1 μM
  MIC: ≤0.016 µg/mL
[8]
  MIC: 0.032 µg/mL (≈ 0.0679 µM)
[9]
  MIC: 0.8 µM (≈ 0.377 µg/mL)
[10]
  MIC: 1.6 µM (≈ 0.754 µg/mL)
[11]
  MIC: 16 µg/mL (≈ 33.9 µM)
[12]
  MIC: >16 µg/mL
[13]
  MIC: 0.5 µg/mL (≈ 1.06 µM)
[14]
  MIC: ≤0.016 µg/mL
[15]
  MIC: >16 µg/mL
[16]
  MIC: >16 µg/mL
[17]
  MIC50: 0.5 µg/mL (≈ 1.06 µM)
  MIC90: 0.5 µg/mL (≈ 1.06 µM)
[18]
  MIC50: 2 µg/mL (≈ 4.24 µM)
  MIC90: 2 µg/mL (≈ 4.24 µM)
[19]
  MIC50: 0.063 µg/mL (≈ 0.134 µM)
  MIC90: 0.125 µg/mL (≈ 0.265 µM)
[20]
  MIC50: 0.5 µg/mL (≈ 1.06 µM)
  MIC90: 0.5 µg/mL (≈ 1.06 µM)
[21]
  MIC50: ≤0.016 µg/mL
  MIC90: 0.032 µg/mL (≈ 0.0679 µM)
[22]
  MIC50: 2 µg/mL (≈ 4.24 µM)
  MIC90: 4 µg/mL (≈ 8.48 µM)

## C[C@@H](O)[C@H](NC(=O)c1ccc(C#Cc2ccc(CNCC(F)(F)F)cc2)cc1)C(=O)NO [C. 467]
[1]; strain MH 10720
  MIC: ≤0.016 µg/mL
[2]
  MIC MH 12587: 0.4 µM (≈ 0.18 µg/mL)
[3]; Mannheimia haemolytica MH 6357
  MIC MH 6357: <=0.1 μM
[3]; strain MH 6357
  MIC: 0.125 µg/mL
[4]; [23]
  MIC: 0.2 µM
[4]; strain MH 6374
  MIC: 0.063 µg/mL
[5]
  MIC: ≤0.016 µg/mL
[6]
  MIC PM 12080: <=0.1 μM
  MIC: ≤0.016 µg/mL
[7]
  MIC PM 6267: <=0.1 μM
  MIC: 0.032 µg/mL (≈ 0.0712 µM)
[8]; Pasteurella multocida PM 6391
  MIC PM 6391: <=0.1 μM
[8]
  MIC: 0.032 µg/mL (≈ 0.0712 µM)
[10]
  MIC: 0.4 µM (≈ 0.18 µg/mL)
[11]
  MIC: >16 µg/mL
[12]
  MIC: >16 µg/mL
[13]
  MIC: 0.032 µg/mL (≈ 0.0712 µM)
[14]
  MIC: ≤0.016 µg/mL
[15]
  MIC: >16 µg/mL
[16]
  MIC: >16 µg/mL
[17]
  MIC50: 0.032 µg/mL (≈ 0.0712 µM)
  MIC90: 0.063 µg/mL (≈ 0.14 µM)
[18]
  MIC50: 2 µg/mL (≈ 4.45 µM)
  MIC90: 2 µg/mL (≈ 4.45 µM)
[19]
  MIC50: ≤0.016 µg/mL
  MIC90: ≤0.016 µg/mL
[20]
  MIC50: 0.032 µg/mL (≈ 0.0712 µM)
  MIC90: 0.063 µg/mL (≈ 0.14 µM)
[21]
  MIC50: ≤0.016 µg/mL
  MIC90: ≤0.016 µg/mL
[22]
  MIC50: 0.125 µg/mL (≈ 0.278 µM)
  MIC90: 0.25 µg/mL (≈ 0.556 µM)
